Legend:
[1] = Oral bioavailability in rat at 10 mg/kg; format: ADME, organism-based; details: in vivo
HT-29 [2] = experiment: Antiproliferative activity against human HT-29 cells harboring BRAF/KRAS mutant; format: functional, cell-based
Cytochrome P450 3A4 [3] = molecular target: T1, Cytochrome P450 3A4 (Homo sapiens, UniProt P08684); experiment: Inhibition of CYP3A4 (unknown origin) under co-incubation condition; format: ADME
hERG (KCNH2) = hERG (KCNH2) (Homo sapiens, UniProt Q12809); experiment: Inhibition of human ERG at […] by Rb efflux assay
Sequence of hERG (KCNH2) (Q12809 whole entry): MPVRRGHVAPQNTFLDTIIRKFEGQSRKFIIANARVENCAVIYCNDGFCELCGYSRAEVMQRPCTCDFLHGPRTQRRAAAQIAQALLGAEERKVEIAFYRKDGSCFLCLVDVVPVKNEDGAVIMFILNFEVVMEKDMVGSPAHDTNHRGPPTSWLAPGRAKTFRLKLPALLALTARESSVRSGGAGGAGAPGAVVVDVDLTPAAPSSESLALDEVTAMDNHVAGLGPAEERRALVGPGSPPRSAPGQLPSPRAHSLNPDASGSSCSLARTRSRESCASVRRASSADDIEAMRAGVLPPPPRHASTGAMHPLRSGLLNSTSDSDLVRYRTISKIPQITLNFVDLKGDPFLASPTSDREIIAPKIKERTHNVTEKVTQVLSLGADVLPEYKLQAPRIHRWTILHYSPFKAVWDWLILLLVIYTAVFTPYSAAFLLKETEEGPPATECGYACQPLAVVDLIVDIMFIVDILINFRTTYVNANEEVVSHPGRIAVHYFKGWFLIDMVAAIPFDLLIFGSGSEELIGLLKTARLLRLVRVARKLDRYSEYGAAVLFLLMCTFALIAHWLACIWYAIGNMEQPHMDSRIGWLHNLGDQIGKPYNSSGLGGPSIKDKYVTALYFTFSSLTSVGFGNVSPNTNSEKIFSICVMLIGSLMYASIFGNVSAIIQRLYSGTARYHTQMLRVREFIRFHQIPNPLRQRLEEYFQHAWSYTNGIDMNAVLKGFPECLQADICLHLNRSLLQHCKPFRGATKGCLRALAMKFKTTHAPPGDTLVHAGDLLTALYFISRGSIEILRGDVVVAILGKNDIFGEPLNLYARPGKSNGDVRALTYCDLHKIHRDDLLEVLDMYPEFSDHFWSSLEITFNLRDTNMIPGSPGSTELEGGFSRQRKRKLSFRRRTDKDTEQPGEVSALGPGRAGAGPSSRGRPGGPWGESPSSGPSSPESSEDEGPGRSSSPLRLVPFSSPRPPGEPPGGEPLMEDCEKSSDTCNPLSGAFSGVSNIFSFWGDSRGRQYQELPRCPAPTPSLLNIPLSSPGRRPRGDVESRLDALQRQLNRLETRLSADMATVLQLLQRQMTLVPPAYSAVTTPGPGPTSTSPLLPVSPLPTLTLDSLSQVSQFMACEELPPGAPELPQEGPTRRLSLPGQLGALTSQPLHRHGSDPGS

[4] = Apparent permeability in human Caco2 cells […]; format: ADME, cell-based; details: Caco-2
[5] = Oral bioavailability in rat at or 10 mg/kg; format: ADME, organism-based; details: in vivo
Cytochrome P450 3A4 [6] = molecular target: T1, Cytochrome P450 3A4; experiment: Inhibition of CYP3A4 (unknown origin) under pre-incubation condition; format: ADME
HT-29 [7] = experiment: Induction of apoptosis in human HT-29 cells harboring BRAF/KRAS mutant by caspase activation assay; format: functional, cell-based
[8] = molecular target: Mitogen-activated protein kinase 1 (Homo sapiens, UniProt P28482); experiment: Inhibition of ERK2 (unknown origin)
Sequence of Mitogen-activated protein kinase 1 (P28482 whole entry): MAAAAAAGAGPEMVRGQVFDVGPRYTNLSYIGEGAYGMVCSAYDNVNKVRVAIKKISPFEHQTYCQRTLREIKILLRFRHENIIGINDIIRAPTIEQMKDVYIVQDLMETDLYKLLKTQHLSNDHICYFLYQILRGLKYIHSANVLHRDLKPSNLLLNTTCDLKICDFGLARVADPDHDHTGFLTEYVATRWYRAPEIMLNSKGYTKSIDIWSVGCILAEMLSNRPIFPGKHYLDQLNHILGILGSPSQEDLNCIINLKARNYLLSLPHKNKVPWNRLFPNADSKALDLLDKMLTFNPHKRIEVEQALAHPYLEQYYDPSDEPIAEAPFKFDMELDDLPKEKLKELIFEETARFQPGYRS

[9] = AUC in rat at 10 mg/kg; format: ADME, organism-based; details: in vivo
[10] = Clearance in dog hepatocytes assessed per million cells; format: ADME, cell-based, Canis lupus familiaris, Hepatocyte
[11] = Clearance in human hepatocytes assessed per million cells; format: ADME, cell-based, Hepatocyte
[12] = AUC in dog at 10 mg/kg, po; format: ADME, organism-based, Canis lupus familiaris; details: in vivo
[13] = Total plasma clearance in rat at 3 mg/kg, iv or 10 mg/kg, po; format: ADME, organism-based
[14] = Half life in rat at 3 mg/kg, iv or 10 mg/kg, po; format: ADME, organism-based; details: in vivo
[15] = MRT in rat at 3 mg/kg, iv or 10 mg/kg, po; format: ADME, organism-based; details: in vivo
[16] = Total plasma clearance in dog at 2 mg/kg, iv or 2 mg/kg dosed via portal vein infusion or 10 mg/kg, po; format: ADME, organism-based, Canis lupus familiaris
[17] = Half life in dog at 2 mg/kg, iv or 2 mg/kg dosed via portal vein infusion or 10 mg/kg, po; format: ADME, organism-based, Canis lupus familiaris; details: in vivo
[18] = MRT in dog at 2 mg/kg, iv or 2 mg/kg dosed via portal vein infusion or 10 mg/kg, po; format: ADME, organism-based, Canis lupus familiaris; details: in vivo
[19] = Oral bioavailability in dog at 10 mg/kg; format: ADME, organism-based, Canis lupus familiaris; details: in vivo
[20] = Drug metabolism in rat cryopreserved hepatocytes assessed as (R)-1-(2-oxo-2-(4-(4-(pyrimidin-2-yl)phenyl)piperazin-1-yl)ethyl)pyrrolidine-3-carboxylic acid formation at 10 uM up to 4 hrs by LC-ESI/MS/MS analysis; format: ADME, cell-based, Hepatocyte
[21] = Drug metabolism in rat cryopreserved hepatocytes assessed as N-(3-(4-fluorophenyl)-1H-indazol-5-yl)acetamide formation at 10 uM up to 4 hrs by LC-ESI/MS/MS analysis; format: ADME, cell-based, Hepatocyte
[22] = Drug metabolism in human cryopreserved hepatocytes assessed as (R)-1-(2-oxo-2-(4-(4-(pyrimidin-2-yl)phenyl)piperazin-1-yl)ethyl)pyrrolidine-3-carboxylic acid formation at 1 uCi/ml up to 4 hrs by LC-ESI/MS/MS analysis; format: ADME, cell-based, Hepatocyte
[23] = Drug metabolism in human cryopreserved hepatocytes assessed as N-(3-(4-fluorophenyl)-1H-indazol-5-yl)acetamide formation at 1 uCi/ml up to 4 hrs by LC-ESI/MS/MS analysis; format: ADME, cell-based, Hepatocyte
[24] = Drug metabolism in rat bile assessed as amide hydrolysis followed by glucuronidation level 10 mg/kg, iv measured during 0 to 8 hrs post dose by LC-ESI/MS/MS analysis; format: ADME, organism-based; details: in vivo
[25] = Drug metabolism in rat bile assessed as amide hydrolysis followed by glucuronidation level 10 mg/kg, iv measured during 8 to 24 hrs post dose by LC-ESI/MS/MS analysis; format: ADME, organism-based; details: in vivo
[26] = Drug metabolism in rat urine assessed as amide hydrolysis followed by glucuronidation level 10 mg/kg, iv measured during 0 to 8 hrs post dose by LC-ESI/MS/MS analysis; format: ADME, organism-based; details: in vivo
[27] = Drug metabolism in rat urine assessed as amide hydrolysis followed by glucuronidation level 10 mg/kg, iv measured during 8 to 24 hrs post dose by LC-ESI/MS/MS analysis; format: ADME, organism-based; details: in vivo
[28] = Drug level in rat cryopreserved hepatocytes treated with (R)-N-(3-(4-fluorophenyl)-1H-indazol-5-yl)-1-(2-oxo-2-(4-(4-(pyrimidin-2-yl)phenyl)piperazin-1-yl)ethyl)pyrrolidine-3-carboxamide at 10 uM up to 4 hrs by LC-ESI/MS/MS analysis; format: ADME, cell-based, Hepatocyte
[29] = Drug level in human cryopreserved hepatocytes treated with [3H]8 at 1 uCi/ml up to 4 hrs by LC-ESI/MS/MS analysis; format: ADME, cell-based, Hepatocyte

T1 sequence (P08684 whole entry): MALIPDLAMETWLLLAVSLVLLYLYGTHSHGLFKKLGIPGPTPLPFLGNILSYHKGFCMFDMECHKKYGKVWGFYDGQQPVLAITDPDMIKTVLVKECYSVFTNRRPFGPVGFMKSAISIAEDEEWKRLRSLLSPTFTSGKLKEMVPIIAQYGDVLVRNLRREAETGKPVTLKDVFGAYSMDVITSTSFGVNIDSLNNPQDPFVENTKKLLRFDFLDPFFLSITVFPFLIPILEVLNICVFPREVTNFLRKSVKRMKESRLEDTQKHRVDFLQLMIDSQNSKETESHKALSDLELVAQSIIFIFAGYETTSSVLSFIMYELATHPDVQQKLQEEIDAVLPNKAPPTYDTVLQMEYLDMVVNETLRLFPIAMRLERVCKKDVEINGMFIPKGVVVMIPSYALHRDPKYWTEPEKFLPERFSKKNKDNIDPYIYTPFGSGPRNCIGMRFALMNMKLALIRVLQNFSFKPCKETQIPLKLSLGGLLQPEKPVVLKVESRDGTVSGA

With O=C(Nc1ccc2[nH]nc(-c3ccncc3)c2c1)[C@@H]1CCN(CC(=O)N2CCN(c3ccc(-c4ncccn4)cc3)CC2)C1 the bioavailability [1] was 0%, the IC50 (HT-29 [2]) was 59 nM and the IC50 (Cytochrome P450 3A4 [3]) was 7800 nM. The inhibition at […] (hERG (KCNH2)) was 12%, the Papp [4] was 4 ×10⁻⁶ cm/s and the bioavailability [5] was 0%. For the same molecule, the IC50 (Cytochrome P450 3A4 [6]) was 5700 nM and the IC50 (HT-29 [7]) was 96 nM.

In the case of COC[C@@]1(C(=O)Nc2ccc3[nH]nc(-c4ccc(F)cc4)c3c2)CCN(CC(=O)N2CC=C(c3ccc(-c4ncccn4)cc3)CC2)C1, the IC50 [8] is reported as 41 nM.

CO[C@@]1(C(=O)Nc2ccc3[nH]nc(-c4ccc(F)cc4)c3c2)CCN(CC(=O)N2CC=C(c3ccc(-c4ncccn4)cc3)CC2)C1 showed an AUC [9] of 1.88 µM·h, an IC50 [8] of 4.8 nM and an IC50 (HT-29 [2]) of 88 nM. The IC50 (Cytochrome P450 3A4 [3]) was 31000 nM, the inhibition at […] (hERG (KCNH2)) was 56% and the CLH [10] was 36 µL/min/1e6 cells. The CLH [11] was 33 µL/min/1e6 cells, the AUC [12] was 4.53 µM·h and the IC50 (Cytochrome P450 3A4 [6]) was 2200 nM. For the same molecule, the IC50 (HT-29 [7]) was 79 nM.

Work on CO[C@@]1(C(=O)Nc2ccc3[nH]nc(-c4ccc(F)cc4)c3c2)CCN(CC(=O)N2CCN(c3ccc(-c4ncccn4)cc3)CC2)C1 yielded an IC50 [8] of 2.1 nM.

CS[C@@]1(C(=O)Nc2ccc3[nH]nc(-c4ccc(F)cc4)c3c2)CCN(CC(=O)N2CC=C(c3ccc(-c4ncccn4)cc3)CC2)C1 gave an IC50 [8] of 7 nM, an IC50 (Cytochrome P450 3A4 [3]) of over 30000 nM and an inhibition at […] (hERG (KCNH2)) of 8%. It also gave a CLH [10] of 18 µL/min/1e6 cells, a CLH [11] of 7 µL/min/1e6 cells and a Papp [4] of 60 ×10⁻⁶ cm/s. For the same molecule, the clearance [13] was 8.4 mL/min/kg, the half-life [14] was 2.5 h and the MRT [15] was 2.5 h. For the same molecule, the bioavailability [5] was 70%, the AUC [12] was 17.2 µM·h and the clearance [16] was 7.6 mL/min/kg. The half-life [17] was 2 h, the MRT [18] was 5.1 h and the bioavailability [19] was 75%. For the same molecule, the IC50 (Cytochrome P450 3A4 [6]) was 2000 nM and the IC50 (HT-29 [7]) was 80 nM.

For CS[C@@]1(C(=O)Nc2ccc3[nH]nc(-c4ccc(F)cc4)c3c2)CCN(CC(=O)N2CCN(c3ccc(-c4ncccn4)cc3)CC2)C1, the IC50 [8] was 5.6 nM.

In the case of [3H]c1cc(N2CCN(C(=O)CN3CC[C@@H](C(=O)Nc4ccc5[nH]nc(-c6c([3H])cc(F)cc6[3H])c5c4)C3)CC2)cc([3H])c1-c1ncccn1, the Drug metabolism [20] is reported as “Metabolite_Detected”, the Drug metabolism [21] is reported as “Metabolite_Detected” and the Drug metabolism [22] is reported as “Metabolite_Detected”. The Drug metabolism [23] was “Metabolite_Detected”, the Drug metabolism [24] was “Metabolite_Detected” and the Drug metabolism [25] was “Metabolite_Detected”. For the same molecule, the Drug metabolism [26] was “Metabolite_Detected” and the Drug metabolism [27] was “Metabolite_Detected”.

With O=C(CN1CCC(Oc2ccccc2)(C(=O)Nc2ccc3[nH]nc(-c4ccc(F)cc4)c3c2)C1)N1CCN(c2ccc(-c3ncccn3)cc2)CC1 (stereo not drawn) the IC50 [8] was over 3000 nM.

Work on O=C(Nc1ccc2[nH]nc(-c3ccc(F)cc3)c2c1)[C@@H]1CCN(CC(=O)N2CC=C(c3ccc(-c4ncccn4)cc3)CC2)C1 yielded an IC50 [8] of 15.5 nM.

With O=C(O)[C@@H]1CCN(CC(=O)N2CCN(c3ccc(-c4ncccn4)cc3)CC2)C1 the Drug metabolism [28] was “Metabolite_Detected” and the Drug metabolism [29] was “Metabolite_Detected”.

Work on O=C(CN1CCC(CF)(C(=O)Nc2ccc3[nH]nc(-c4ccc(F)cc4)c3c2)C1)N1CCN(c2ccc(-c3ncccn3)cc2)CC1 (stereo not drawn) yielded an IC50 [8] of 5.8 nM.

For O=C(CN1CC[C@@H](CNc2ccc3[nH]nc(-c4ccc(F)cc4)c3c2)C1)N1CCN(c2ccc(-c3ncccn3)cc2)CC1, the IC50 [8] was 960 nM.

With CC(=O)Nc1ccc2[nH]nc(-c3ccc(F)cc3)c2c1 the Drug metabolism [28] was “Metabolite_Detected” and the Drug metabolism [29] was “Metabolite_Detected”.

For O=C(Nc1ccc2[nH]nc(-c3ccc(F)cc3)c2c1)[C@@H]1CCN(CC(=O)N2CCN(c3ccc(-c4ncccn4)cc3)CC2)C1, the IC50 [8] was 5.5 nM.

For CC(C)O[C@@]1(C(=O)Nc2ccc3[nH]nc(-c4ccc(F)cc4)c3c2)CCN(CC(=O)N2CCN(c3ccc(-c4ncccn4)cc3)CC2)C1, the IC50 [8] was 90 nM.

CC(=O)N(C[C@@H]1CCN(CC(=O)N2CCN(c3ccc(-c4ncccn4)cc3)CC2)C1)c1ccc2[nH]nc(-c3ccc(F)cc3)c2c1 showed an IC50 [8] of 574 nM.

In the case of CCO[C@@]1(C(=O)Nc2ccc3[nH]nc(-c4ccc(F)cc4)c3c2)CCN(CC(=O)N2CCN(c3ccc(-c4ncccn4)cc3)CC2)C1, the IC50 [8] is reported as 9.7 nM.

CS[C@]1(C(=O)Nc2ccc3[nH]nc(-c4ccc(F)cc4)c3c2)CCN(CC(=O)N2CC=C(c3ccc(-c4ncccn4)cc3)CC2)C1 gave an IC50 [8] of over 3000 nM.

CC[C@@]1(C(=O)Nc2ccc3[nH]nc(-c4ccc(F)cc4)c3c2)CCN(CC(=O)N2CC=C(c3ccc(-c4ncccn4)cc3)CC2)C1 gave an IC50 [8] of 115 nM.

With O=C(Nc1ccc2[nH]nc(-c3ccc(F)cc3)c2c1)C1CN(CC(=O)N2CC=C(c3ccc(-c4ncccn4)cc3)CC2)CCS1 (stereo not drawn) the IC50 [8] was 1310 nM.

Work on CN(C)C1(C(=O)Nc2ccc3[nH]nc(-c4ccc(F)cc4)c3c2)CCN(CC(=O)N2CC=C(c3ccc(-c4ncccn4)cc3)CC2)C1 (stereo not drawn) yielded an IC50 [8] of 21 nM.

For COC[C@@]1(C(=O)Nc2ccc3[nH]nc(-c4ccc(F)cc4)c3c2)CCN(CC(=O)N2CCN(c3ccc(-c4ncccn4)cc3)CC2)C1, the IC50 [8] was 25 nM.

In the case of CS(=O)(=O)[C@@]1(C(=O)Nc2ccc3[nH]nc(-c4ccc(F)cc4)c3c2)CCN(CC(=O)N2CC=C(c3ccc(-c4ncccn4)cc3)CC2)C1, the IC50 [8] is reported as 12 nM.

Work on O=C(CN1CCCC(c2cn(-c3ccc4[nH]nc(-c5ccc(F)cc5)c4c3)nn2)C1)N1CC=C(c2ccc(-c3ncccn3)cc2)CC1 (stereo not drawn) yielded an IC50 [8] of over 1000 nM.

In the case of C[C@@]1(C(=O)Nc2ccc3[nH]nc(-c4ccc(F)cc4)c3c2)CCN(CC(=O)N2CCN(c3ccc(-c4ncccn4)cc3)CC2)C1, the IC50 [8] is reported as 24 nM.

O=C(Nc1ccc2[nH]nc(-c3ccc(F)cc3)c2c1)C1CN(CC(=O)N2CC=C(c3ccc(-c4ncccn4)cc3)CC2)CCO1 (stereo not drawn) showed an IC50 [8] of 119 nM.

For O=C(CN1CC[C@@](CO)(C(=O)Nc2ccc3[nH]nc(-c4ccc(F)cc4)c3c2)C1)N1CC=C(c2ccc(-c3ncccn3)cc2)CC1, the IC50 [8] was 14 nM.

From ChEMBL document CHEMBL4219261, “Discovery of 3(S)-thiomethyl pyrrolidine ERK inhibitors for oncology” (Bioorg Med Chem Lett, 2018)
